This passage reports Kd results from US12534469B2 (CHILDREN'S HOSPITAL MEDICAL CENTER, priority 2020, dated 2026).

Changes are numbered by the printed parent chain.

The target of one experiment is T1, FLT3 R834Q (Homo sapiens, UniProt P36888, R834Q).
T1 construct: purchased DiscoverX (KINOMEscan); host or cells: E. coli (T7 phage) or HEK-293
T1 sequence (P36888 27-993 R834Q): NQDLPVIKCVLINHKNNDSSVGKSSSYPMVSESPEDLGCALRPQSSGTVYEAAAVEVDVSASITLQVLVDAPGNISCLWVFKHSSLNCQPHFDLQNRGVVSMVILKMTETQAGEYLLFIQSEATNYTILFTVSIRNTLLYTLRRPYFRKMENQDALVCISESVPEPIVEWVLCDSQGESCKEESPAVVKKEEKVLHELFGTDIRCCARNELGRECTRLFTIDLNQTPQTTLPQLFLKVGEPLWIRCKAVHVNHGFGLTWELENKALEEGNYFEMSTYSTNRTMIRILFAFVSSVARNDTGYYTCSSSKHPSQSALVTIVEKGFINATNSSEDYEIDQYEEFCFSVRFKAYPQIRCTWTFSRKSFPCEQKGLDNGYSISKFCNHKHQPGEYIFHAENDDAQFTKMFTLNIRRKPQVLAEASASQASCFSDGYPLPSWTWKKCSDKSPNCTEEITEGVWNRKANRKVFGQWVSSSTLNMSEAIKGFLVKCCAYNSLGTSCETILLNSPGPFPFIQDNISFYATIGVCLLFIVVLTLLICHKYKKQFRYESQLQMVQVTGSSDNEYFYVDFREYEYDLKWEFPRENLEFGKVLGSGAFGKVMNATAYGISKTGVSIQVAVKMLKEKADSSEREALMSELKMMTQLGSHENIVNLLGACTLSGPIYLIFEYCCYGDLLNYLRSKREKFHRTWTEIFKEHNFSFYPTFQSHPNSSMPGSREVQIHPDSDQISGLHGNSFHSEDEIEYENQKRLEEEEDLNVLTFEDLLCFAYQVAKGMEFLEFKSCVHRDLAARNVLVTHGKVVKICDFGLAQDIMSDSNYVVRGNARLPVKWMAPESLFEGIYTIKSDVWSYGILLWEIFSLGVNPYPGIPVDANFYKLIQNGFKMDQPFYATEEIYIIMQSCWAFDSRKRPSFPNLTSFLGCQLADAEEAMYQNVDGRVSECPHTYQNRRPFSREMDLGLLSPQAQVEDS
As to the kind of experiment: DiscoverX KINOMEscan competition binding assay, FLT3 R834Q. The source says:
(§1) Kinase binding data were obtained for various exemplary compounds prepared according to Examples 1-25 using the DiscoverX KINOMEscan® active site-directed competition binding site-directed assay protocol described below. […] As a result, the data report thermodynamic interaction affinities (Kd values), rather than IC50 values that are dependent on ATP concentrations. The assay uses a DNA-tagged version of the protein kinase, and an immobilized ligand bound to a solid support. Compounds that directly or indirectly prevent kinase binding to the immobilized ligand reduce the amount of kinase captured on the solid support, which is detected using an ultra-sensitive qPCR method. Affinity constants reported from the assay have been reported to be independent of the immobilized ligand used that is coupled to the solid support (See supplemental information in Fabian, M. A. et. al., (2005) Nat. Biotechnol. 23, 329-336; Wodicka, L. M. et. al., (2010) Chem. Biol. 17, 1241-1249.)
(§2) Kinase-tagged T7 phage strains were prepared in an E. coli host derived from the BL21 strain. E. coli were grown to log-phase and infected with T7 phage and incubated with shaking at 32° C. until lysis. The lysates were centrifuged and filtered to remove cell debris. The remaining kinases were produced in HEK-293 cells and subsequently tagged with DNA for qPCR detection. […] The liganded beads were blocked with excess biotin and washed with blocking buffer (SeaBlock (Pierce), 1% BSA, 0.05% Tween 20, 1 mM DTT) to remove unbound ligand and to reduce non-specific binding. […] Test compounds were prepared as 111× stocks in 100% DMSO. Kds were determined using an 11-point 3-fold compound dilution series with three DMSO control points. […] The compounds were then diluted directly into the assays such that the final concentration of DMSO was 0.9%. All reactions were performed in polypropylene 384-well plates. Each was a final volume of 0.02 mL. […] The kinase concentration in the eluates was measured by qPCR.
(§3) Binding constants (Kds) were calculated with a standard dose-response curve using the Hill equation. […]

Another experiment addresses T2, FLT3 D835H (Homo sapiens, UniProt P36888, D835H).
T2 construct: purchased DiscoverX (KINOMEscan); host or cells: E. coli (T7 phage) or HEK-293
T2 sequence (P36888 27-993 D835H): T1 sequence (P36888 27-993 R834Q) with Q808R, D809H
Kind of experiment: DiscoverX KINOMEscan competition binding assay, FLT3 D835H.
Source text: as §1, §2, §3

As a reminder, the Kd is the equilibrium constant for the complex coming apart. Low readings indicate a tighter complex, high ones a looser complex.

As for `COc1cc2ncc(-c3cccc(N[C@@H]4CCNC4)n3)n2nc1C1CC1` [Compound 97, (R)-6-(6-cyclopropyl-7-methoxyimidazo[1,2-b]pyridazin-3-yl)-N-(pyrrolidin-3-yl)pyridin-2-amine], the Kd on FLT3 R834Q was determined as 0.8 nM; on FLT3 D835H it was 0.18 nM.

On to `COc1cc2ncc(-c3cccc(N[C@H]4CNCC[C@@H]4F)n3)n2nc1C1CC1` [Compound 102, 6-(6-cyclopropyl-7-methoxyimidazo[1,2-b]pyridazin-3-yl)-N-((3S,4S)-4-fluoropiperidin-3-yl)pyridin-2-amine], for which the Kd on FLT3 R834Q came out at 0.61 nM; on FLT3 D835H, 0.21 nM.

As for `COc1cc2ncc(-c3cccc(N[C@H]4CNC[C@@H]4F)n3)n2nc1C1CC1` [Compound 96, 6-(6-cyclopropyl-7-methoxyimidazo[1,2-b]pyridazin-3-yl)-N-((3S,4S)-4-fluoropyrrolidin-3-yl)pyridin-2-amine], the dissociation constant Kd amounted to 1.6 nM on FLT3 R834Q and 0.23 nM on FLT3 D835H.
